# From ChEMBL document CHEMBL5543127, “Design, Synthesis, and Biological Evaluation of 2-Phenoxyalkylhydrazide Benzoxazole Derivatives as Quorum Sensing Inhibitors with Strong Antibiofilm Effect” (J Med Chem, 2024)
# Calls of active or inactive are those of the source. The rule behind the calls is not given here.
# Experiments:
# Pseudomonas aeruginosa [1] = test: Anti-microbial activity against Pseudomonas aeruginosa PAO1 incubated for 20 hrs By CLSI based micro-dilution method; format: functional
# Escherichia coli = test: Anti-microbial activity against penicillin-susceptible Escherichia coli ATCC25922 incubated for 20 hrs By CLSI based micro-dilution method; format: functional
# Staphylococcus aureus [2] = test: Anti-microbial activity against erythromycin-susceptible Staphylococcus aureus ATCC25923 incubated for 20 hrs By CLSI based micro-dilution method; format: functional
# Pseudomonas aeruginosa [3] = test: Anti-microbial activity against penicillin-susceptible Pseudomonas aeruginosa 27853 incubated for 20 hrs By CLSI based micro-dilution method; format: functional
# Bacillus pumilus = test: Anti-microbial activity against Bacillus pumilus CMCC63202 incubated for 20 hrs By CLSI based micro-dilution method; format: functional
# [4] = Inhibition of quorum sensing system in Pseudomonas aeruginosa PAO1 at logarithmic growth period assessed as inhibition of pyocyanin production at 102.4 microg/ml incubated for 18 hrs by pyocyanin inhibition assay; conditions: dose 102.4 µg/ml
# Bacillus subtilis = test: Anti-microbial activity against Bacillus subtilis ATCC9372 incubated for 20 hrs By CLSI based micro-dilution method; format: functional
# Staphylococcus aureus [5] = test: Anti-microbial activity against methicillin-resistant Staphylococcus aureus ATCC43300 incubated for 20 hrs By CLSI based micro-dilution method; format: functional
Compound,MIC (Pseudomonas aeruginosa [1]),MIC (Escherichia coli),MIC (Staphylococcus aureus [2]),MIC (Pseudomonas aeruginosa [3]),MIC (Bacillus pumilus),inhibition [4],MIC (Bacillus subtilis),MIC (Staphylococcus aureus [5])
CCCCC(=O)N/N=c1\sc2ccccc2n1C,> 512 mg/L,> 512 mg/L,512 mg/L,> 512 mg/L,> 512 mg/L,Active,> 512 mg/L,> 512 mg/L
CC[C@H]1OC(=O)[C@H](C)[C@@H](O[C@H]2C[C@@](C)(OC)[C@@H](O)[C@H](C)O2)[C@H](C)[C@@H](O[C@@H]2O[C@H](C)C[C@H](N(C)C)[C@H]2O)[C@](C)(OC)C[C@@H](C)C(=O)[C@H](C)[C@@H](O)[C@]1(C)O [CLARITHROMYCIN],256 mg/L,128 mg/L,0.25 mg/L,128 mg/L,0.25 mg/L,,0.25 mg/L,16 mg/L
CC(C)c1ccc(/C=N/Nc2nc3ccccc3o2)cc1,> 512 mg/L,> 512 mg/L,64 mg/L,> 512 mg/L,512 mg/L,inactive,512 mg/L,256 mg/L
Cc1cccc(C(=O)NNc2nc3ccccc3s2)c1,> 512 mg/L,> 512 mg/L,> 512 mg/L,512 mg/L,512 mg/L,62.8%,512 mg/L,> 512 mg/L
O=C(NNc1nc2ccccc2s1)c1cccc(Cl)c1,> 512 mg/L,> 512 mg/L,> 512 mg/L,512 mg/L,256 mg/L,,512 mg/L,128 mg/L
Cc1ccc(C(=O)N/N=c2\sc3ccccc3n2C)cc1,> 512 mg/L,> 512 mg/L,> 512 mg/L,> 512 mg/L,> 512 mg/L,,> 512 mg/L,> 512 mg/L
COc1ccccc1C(=O)N/N=c1\sc2ccccc2n1C,> 512 mg/L,> 512 mg/L,> 512 mg/L,> 512 mg/L,> 512 mg/L,,> 512 mg/L,> 512 mg/L
O=C(NNc1nc2ccccc2s1)c1ccc(F)cc1,> 512 mg/L,> 512 mg/L,> 512 mg/L,512 mg/L,> 512 mg/L,,512 mg/L,256 mg/L
Cn1c(=NNC(=O)CCCCOc2ccc(Cl)cc2)sc2ccccc21,> 512 mg/L,> 512 mg/L,256 mg/L,> 512 mg/L,256 mg/L,Active,512 mg/L,
CCCCCCCCC(=O)N/N=c1\sc2ccccc2n1C,> 512 mg/L,> 512 mg/L,> 512 mg/L,> 512 mg/L,> 512 mg/L,Active,> 512 mg/L,> 512 mg/L
CCCCCCCCCC(=O)N/N=c1\sc2ccccc2n1C,> 512 mg/L,> 512 mg/L,512 mg/L,> 512 mg/L,> 512 mg/L,Active,512 mg/L,> 512 mg/L
Clc1ccc(/C=N/Nc2nc3ccccc3o2)cc1Cl,> 512 mg/L,> 512 mg/L,64 mg/L,> 512 mg/L,> 512 mg/L,inactive,512 mg/L,512 mg/L
CCCCCC(=O)N/N=c1\sc2ccccc2n1C,> 512 mg/L,> 512 mg/L,256 mg/L,> 512 mg/L,> 512 mg/L,,> 512 mg/L,> 512 mg/L
Cc1cccc(C(=O)N/N=c2\sc3ccccc3n2C)c1,> 512 mg/L,> 512 mg/L,> 512 mg/L,> 512 mg/L,> 512 mg/L,,512 mg/L,> 512 mg/L
Cn1c(=NNC(=O)CCCCOc2ccc(F)cc2)sc2ccccc21,> 512 mg/L,> 512 mg/L,,> 512 mg/L,256 mg/L,Active,512 mg/L,
CCCCCCC(=O)N/N=c1\sc2ccccc2n1C,> 512 mg/L,> 512 mg/L,> 512 mg/L,> 512 mg/L,> 512 mg/L,,> 512 mg/L,> 512 mg/L
